system: primary human colon epithelial cells infected with EHEC; test: Colon chip EHEC infection, epithelial lesion analysis; format: cell-based; conditions: metabolites added individually to a colon-chip
Method: Referring generally to FIGS. 18A-18C, microbiome metabolites recapitulate species-specific tolerance in Colon Chips. Human or mouse intestinal microbiome metabolites (e.g., isolated from specific strains of bacterial or fecal samples incubated in a bioreactor) were added to the intestinal channel of optically clear, human colon chips that are lined by primary human colon epithelial cells and directly opposed to a second parallel vascular microchannel in which HIMVECs are cultured. The two channels are separated by a thin, porous, ECM-coated membrane. Human intestinal epithelium was isolated from resections or endoscopic tissue biopsies. Endoscopic biopsies were collected from macroscopicallynormal (grossly unaffected) areas of the colon undergoing endoscopy for abdominal complaints. Organoids were grown from these tissue samples and seeded into the upper chamber of a two channel closed top microfluidic device. Human intestinal microvascular endothelial cells (HIMECs) were obtained from ScienCell (Cat #2900). The intestinal luminal channel medium was switched to 5% (vol vol-1) human (Hmm) or mouse (Mmm) gut microbiome metabolites isolated from PolyFermS bioreactors, diluted in phosphate-buffered saline (PBS) containing calcium and magnesium (final osmolarity=300 mOsm kg-1), filtered through a 0.2 μm filter (Corning), and stored at −80° C.
For example, on day 8 of a colon chip culture, the luminal culture medium is replaced with the same medium supplemented with human or murine microbiome metabolites (diluted 1:20 in a PBS-water based solution to 300 mOsm kg-1), while continuing to flow the same endothelial culture medium through the vascular channel. Perfusion is continued for 24 hours, followed by introduction of EHEC (1.7×105; serotype O157:H7) into the apical lumen in the same medium for 3 hours under static conditions to allow for bacterial cell attachment; medium flow is then re-established and continued for 24 additional hours.
Referring to colon chip infection, colon chips were cultured in the intestinal lumen channel of a chip in 5% (vol vol-1) human or mouse gut microbiome metabolites isolated from PolyFermS bioreactors, diluted in phosphate-buffered saline (PBS; final osmolarity=300 mOsm kg-1) or 24 hours. The following day, the intestinal channel was infected with 1.7×105. EHEC-GFP or EHEC A fliC (both generated from NR-3 E. coli/EDL931; serotype O157:H7), by adding the bacteria into the channel lumen in medium again with or without Hmm or Mmm. […]
For epithelial lesion analysis, one day post-infection, colon chips were washed with PBS and fixed with 4% paraformaldehyde in PBS for 2 hours. […] The area occupied by cells and the total area of the chip were measured using Fiji software.

SMILES	epithelial injury during a EHEC infection of the chip
CCCCCCC(=O)O [heptanoic acid]	enhance epithelial injury
Cc1ccc(C(=O)O)cc1C [3,4-dimethylbenzoic acid]	enhance epithelial injury
Cc1ccc(C(=O)O)cc1 [4-methyl benzoic acid]	enhance epithelial injury
CCCCCC(=O)O [hexanoic acid]	enhance epithelial injury

Reference: patent US11807871B2, “Complex human gut microbiome cultured in an anaerobic human gut-on-a-chip” (President and Fellows of Harvard College, priority 2018, dated 2023)
